The values below come from PMC7687371, “Quantitative in Vitro to in Vivo Extrapolation (QIVIVE) for Predicting Reduced Anogenital Distance Produced by Anti-Androgenic Pesticides in a Rodent Model for Male Reproductive Disorders” (Environmental Health Perspectives, 2020).

Marks after values point to notes of the source that are not given here.

For one series, the system named is NCI-H295R cells. Briefly: H295R steroidogenesis assay. The series is classed as cell-based, human. The note with it: for Effect on androgen (steroid) synthesis, in words: H295R steroidogenesis assay. The protocol:
To capture effects on steroid hormone synthesis (testosterone and androstendione), we tested all 12 pesticides in the H295R assay with the human adrenocortical carcinoma cell line NCI-H295R (American Type Culture Collection no. CRL-2,128, LGC Standards), as previously described ([Hecker et al. 2011]; [Rosenmai et al. 2013]). In brief, cells were cultured in DMEM/F-12 +glutamine medium with HEPES buffer (Invitrogen) containing 1% insulin-transferrin-sodium selenite plus Premix (VWR) and 2.5% Nu-Serum (BD Bioscience) at 37°C in a 5% CO2 atmosphere. The day before exposure, cells were seeded 300,000 per well in clear 24-well plates (VWR Corning). Cells were exposed for 48 h to control (Forskolin: 1μM , 10μM (Sigma-Aldrich); and Prochloraz: 0.3μM , 3μM (VWR-Bie and Berntsen) or test compounds. The vehicle (DMSO) concentration was kept constant in all wells (0.1%). After 48 h, the exposure culture medium was removed and stored at –80°C until the levels of 10 steroid hormones (testosterone, androstenedione, aldosterone, corticosterone, cortisol, dehydroepiandrosterone, 17α-hydroxyprogesterone , progesterone, estrone, and 17β-estradiol ) were quantified using the high-performance liquid chromatography–tandem mass spectrometry method described elsewhere ([Mortensen and Pedersen 2007]). Minor modifications were made to accommodate a smaller sample size and to include more hormones. The liquid chromatography system (Agilent 1100) was equipped with an Atlantis C18 column ( 2.1×150mm , 3μm ) (Waters Corp.) maintained at 40°C. The sample injection volume was 50μL . […] The mass spectrometer was a Quattro Ultima triple quadrupole instrument (Waters Corp.). […] Each pesticide was tested in 2-fold serial dilutions at concentrations between 0.8 and 50μM in three independent experiments, and hormone levels were normalized to the solvent controls containing 0.1% DMSO. Cell viability was evaluated by using the 3-(4,5-dimethylthiazol-2-yl)-2,5- diphenyltetrazolium bromide (MTT) assay (Sigma) as previously described ([Hecker et al. 2011]; [Rosenmai et al. 2013]). Fluorescence was measured (excitation 560 nm , emission 590 nm ) using a Wallac Victor2 1420 multilabel counter (PerkinElmer).

Series [1] is described as follows: PBK model first-order kinetic parameters fitted to in vivo ADME data. Further details: species or system rat. The note with it: PBK model parameter; for Metabolism rate in liver, Total (L/h) KMetab: metabolic clearance.
A further series deals with Sprague-Dawley rats. The series can be described thus: In vivo Study 2 (linuron), reproductive/developmental toxicity, AGD. The following applies: for AGDI mean: Study 2, male pups; for AGDI reduction (%): male offspring, normalized AGDI scale.
Details of series [2]: method as in U.S. EPA 2012. The note with it: EPI Suite, experimental preferred over modeled; ref U.S. EPA 2012; cited from earlier work.
The conditions of series [3]: ref Wetmore et al. (2012); cited from earlier work.
Another series has as its system pregnant dams and pups. The following applies: ref EFSA's Draft Assessment Reports (DARs); cited from earlier work.

As to `CON(C)C(=O)Nc1ccc(Cl)c(Cl)c1` [Linuron, linuron, reference compound], in the series with NCI-H295R cells, the “Effect on androgen (steroid) synthesis, in words” value is recorded as “inhibited the synthesis of androgens”. Besides, the IC50 in the series with NCI-H295R cells (Homo sapiens, NCI-H295R, 48 h, read-out: Testosterone inhibition (IC50, μM)) is 27 µM. In series [1], the “Fecal excretion rate from gut (L/h) KFeces” value worked out at 0.08 L/h; the “Portal GI absorption rate into liver (L/h) KAS” value is listed as 0.5 L/h; the “Urine excretion rate from kidney (L/h) KUrine” value amounted to 0.05 L/h; the “Metabolism rate in liver, Total (L/h) KMetab” value worked out at 1.0 L/h. Besides, the “AGDI ED10” value in the series with Sprague-Dawley rats (Study 2, dose causing 10% AGDI reduction, regression) turned out to be 27 mg/kg BW. In the series on Sprague-Dawley rats (dose 25 mg/kg BW (control 1.00)), this molecule had an AGDI mean of 0.91. Besides, in the series on Sprague-Dawley rats (dose 50 mg/kg BW (control 1.00)), the AGDI mean stood at 0.72. The Maternal toxicity result in the series on Sprague-Dawley rats (highest dose, 75 mg/kg per day) is listed as “Maternal toxicity was observed”. Further, in the series on Sprague-Dawley rats (dose 25 mg/kg BW per day), the “AGDI reduction (%)” value was found to be 9%. Moreover, the “AGDI reduction (%)” value with Sprague-Dawley rats (dose 50 mg/kg BW per day) is on record as 28%. For the same molecule, the “log Kow” value in series [2] is given as 3.20. Besides, the “Unbound plasma fraction (%)” value in series [3] is recorded as 10.5^g %.
In the case of `Oc1ccccc1-c1ccccc1` [o -Phenylphenol, o -phenylphenol], in the series with pregnant dams and pups, the Critical toxicity entry is “Maternal BW gain, bladder & kidney effect”; the “LOAEL (mg/kg bw)” value is on record as 140 mg/kg bw; the “NOAEL (mg/kg bw)” value is given as 40 mg/kg bw. Also, the “Effect on androgen (steroid) synthesis, in words” value with NCI-H295R cells is on record as “inhibited testosterone synthesis”. Also, the IC20 with NCI-H295R cells (NCI-H295R cells, read-out: Testosterone inhibition (IC20 µM)) amounted to 25 µM. Also, in the series with NCI-H295R cells (multiple contrast tests), the “Estradiol, LOEC” value was determined as 25 µM and the “Testosterone, lowest observed effect concentration (LOEC)” value is 50 µM. Further, in series [1], the “Fecal excretion rate from gut (L/h) KFeces” value turned out to be 0.1 L/h; the “Portal GI absorption rate into liver (L/h) KAS” value is 1 L/h; the “Urine excretion rate from kidney (L/h) KUrine” value is 0.01 L/h; the “Metabolism rate in liver, Total (L/h) KMetab” value is 0.2 L/h. Also, the “log Kow” value in series [2] was 3.09. In addition, in series [3], the “Unbound plasma fraction (%)” value is reported as 4.1^g %.

The term IC50 denotes the concentration at which inhibition is half-maximal. For orientation: IC20 means the concentration at which the effect reaches the 20% level.
